According to patent US20260137774A1, “Hepatitis B Virus Receptor OATP and Use Thereof” (priority 2022, published 2026):

What was measured:
[1] = target: T1, human OATP1B1 (hOATP1B1) (Homo sapiens, UniProt Q9Y6L6); conditions: pH 7.4
T1 sequence (Q9Y6L6 1-691): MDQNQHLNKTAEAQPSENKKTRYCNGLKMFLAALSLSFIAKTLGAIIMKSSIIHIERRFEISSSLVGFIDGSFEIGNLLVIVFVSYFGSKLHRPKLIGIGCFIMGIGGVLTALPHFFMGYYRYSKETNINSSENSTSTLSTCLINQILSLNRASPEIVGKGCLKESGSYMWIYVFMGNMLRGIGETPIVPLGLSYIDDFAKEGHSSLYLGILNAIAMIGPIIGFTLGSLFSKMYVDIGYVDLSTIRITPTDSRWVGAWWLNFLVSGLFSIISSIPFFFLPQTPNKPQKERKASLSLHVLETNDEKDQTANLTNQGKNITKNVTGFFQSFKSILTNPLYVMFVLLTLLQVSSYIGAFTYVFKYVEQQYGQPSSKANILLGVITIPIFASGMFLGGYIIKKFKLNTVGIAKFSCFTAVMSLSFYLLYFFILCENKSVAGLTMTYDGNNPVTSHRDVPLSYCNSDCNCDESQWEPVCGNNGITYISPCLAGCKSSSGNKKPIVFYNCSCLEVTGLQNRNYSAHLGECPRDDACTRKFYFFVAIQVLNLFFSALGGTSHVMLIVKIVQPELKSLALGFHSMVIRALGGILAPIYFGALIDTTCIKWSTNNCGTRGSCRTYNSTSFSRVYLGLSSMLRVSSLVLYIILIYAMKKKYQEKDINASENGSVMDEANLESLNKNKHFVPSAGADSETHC
Experimental: (§1) Cells for experiments were cultured in DMEM medium at 37° C. and 5% C02. Among them, DMEM medium contains 10% fetal calf serum, penicillin-streptomycin solution (100 U/mL and 0.1 mg/mL) and 0.5 mg/mL geneticin. Before the transfer experiment, cells were seeded in a 24-well plate at a density of 4×10^5 cells/well. The transfer experiment can be performed when the cell confluence reaches 80-90%.
(§2) The concentrations of substrates and positive inhibitors for each transporter are as follows.
(§3) Preparation of working solution: Use PBS to prepare a test substance stock solution with a concentration of 6 mM, and then dilute it with PBS in a gradient to 2000 μM, 1000 μM, 200 μM, 100 μM and 20 μM concentration working solution, and dilute the above working solutions of different concentrations to 20 μM, 10 μM, 2 μM, 1 μM and 0.2 μM concentration dosing solutions (Dosing Solution) respectively, so that the final concentrations of the test substance in the test system are 10 μM, 5 μM and 5 μM respectively. μM, 1 μM, 0.5 μM and 0.1 μM.
(§4) Pre-incubation of OATP1B1 and OATP1B3: Aspirate the culture medium from the culture plate, and wash the cells twice with 37° C. pre-warmed TB buffer (pH7.4), 0.5 mL each time. […] Among them, the NC group includes MOCK cells and each transporter cell, and the MOCK cell group is used to calculate the uptake ratio and passive transport amount. […]

[2] = target: T2, human OATP1B3 (hOATP1B3) (Homo sapiens, UniProt Q9NPD5); conditions: pH 7.4
T2 sequence (Q9NPD5 1-702): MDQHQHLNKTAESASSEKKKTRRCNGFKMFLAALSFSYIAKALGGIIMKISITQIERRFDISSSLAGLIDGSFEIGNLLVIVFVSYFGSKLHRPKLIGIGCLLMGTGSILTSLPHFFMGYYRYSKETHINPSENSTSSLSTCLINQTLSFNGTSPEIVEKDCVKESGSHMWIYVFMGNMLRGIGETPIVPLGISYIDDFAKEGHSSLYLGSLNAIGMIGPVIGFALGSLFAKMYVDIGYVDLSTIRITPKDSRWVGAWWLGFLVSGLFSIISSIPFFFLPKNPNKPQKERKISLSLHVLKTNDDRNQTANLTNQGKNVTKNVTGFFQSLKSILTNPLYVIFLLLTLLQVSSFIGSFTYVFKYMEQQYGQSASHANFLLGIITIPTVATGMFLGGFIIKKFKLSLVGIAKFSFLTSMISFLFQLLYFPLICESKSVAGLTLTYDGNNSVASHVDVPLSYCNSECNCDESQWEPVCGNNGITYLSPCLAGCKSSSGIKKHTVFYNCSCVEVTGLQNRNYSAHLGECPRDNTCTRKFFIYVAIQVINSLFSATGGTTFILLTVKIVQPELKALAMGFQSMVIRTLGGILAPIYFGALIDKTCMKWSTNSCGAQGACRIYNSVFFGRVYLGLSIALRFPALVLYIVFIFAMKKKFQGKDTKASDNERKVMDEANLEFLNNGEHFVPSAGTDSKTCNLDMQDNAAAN
Experimental: as §1, §2, §3, §4

[3] = tested on: HepG2 cells; assay: Drug susceptibility test of selection antibiotics on HepG2 cells; type: cell-based
[4] = tested on: Hela cells; assay: Drug susceptibility test of selection antibiotics on HeLa cells; type: cell-based

Structure (SMILES): CCCCC(=O)N(Cc1ccc(-c2ccccc2-c2nnn[nH]2)cc1)[C@H](C(=O)O)C(C)C [valsartan]
- uptake ratio of drug substrate [1]: 3.25
- uptake ratio of drug substrate [2]: 6.90

Structure (SMILES): COc1ccc(C[C@H](N)C(=O)N[C@H]2[C@@H](O)[C@H](n3cnc4c(N(C)C)ncnc43)O[C@@H]2CO)cc1 [puromycin]
- concentration that could kill all cultured cells [3]: 1 µg/mL
- concentration that could kill all cultured cells [4]: 1 µg/mL

Structure (SMILES): CN(CC[C@H](N)CC(=O)N[C@H]1C=C[C@H](n2ccc(N)nc2=O)O[C@@H]1C(=O)O)C(=N)N [BSD, Blasticidin]
- concentration that could kill all cultured cells [3]: 2 µg/mL
